Columns and labels:
[1] = tested on: CYPSE (Flatsedge); assay: Preemergence weed control under flooded paddy conditions; assay type: in vivo, Cyperus serotinus; details: rated 3-4 weeks after treatment
How it was run: (§1)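 Visual injury scored 0-9 against control three to four weeks post-treatment, greenhouse-grown. Application: acetone/water (50/50) solutions dosed directly into flood water (1.5-3 cm over silt loam, planted top 0.5 cm), roughly 0.0313 to 0.500 kg/ha active ingredient.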

[2] = tested on: ECHORC (Watergrass (Calif.)); assay: as above; assay type: in vivo, Echinochloa oryzoides; details: rated 3-4 weeks after treatment
How it was run: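 Herbicidal effect is scored visually on a 0-9 scale against an untreated control, three to four weeks after compounds are pipetted into the flood water (1.5 to 3 cm deep) over seeds planted in silt loam at 0.5 cm depth. Rates: about 0.0313 to 0.500 kg/ha.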

[3] = tested on: SAGPY (Arrowhead (Pygmaea)); assay: as above; assay type: in vivo, Sagittaria pygmaea; details: rated 3-4 weeks after treatment
How it was run: as §1

[4] = tested on: ABUTH (Velvetleaf); assay: Postemergence herbicidal evaluation; assay type: in vivo, Abutilon theophrasti; details: postemergence
How it was run: (§2)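 Rate range approx. 0.0156–0.500 kg/ha. Foliar application at 40 psi to ~2-week seedlings; surfactant 0.5% TWEEN 20 in 50/50 acetone/water. Evaluation 4–5 wk post-treatment by 0–9 visual injury score, means of replicate tests.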

[5] = tested on: TRZAWR (Wheat, Winter, cv Riband); assay: Preemergence herbicidal evaluation; assay type: in vivo, Triticum aestivum; details: rated 4-5 weeks after treatment
How it was run: (§3)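 Scores use a 0–9 visual scale covering stand, vigor, malformation, size and chlorosis relative to controls, rated four to five weeks after treatment. Before emergence, soil-planted seeds were sprayed with compound in aqueous acetone at roughly 0.0156–0.500 kg/ha and held in the greenhouse.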

[6] = tested on: CASOB (Sicklepod); assay: Postemergence herbicidal evaluation; assay type: in vivo, Cassia obtusifolia; details: postemergence
How it was run: as §2

[7] = tested on: GALAP (Galium); assay: Postemergence herbicidal evaluation; assay type: in vivo, Galium aparine; details: postemergence
How it was run: as §2

[8] = tested on: ZEAMX (Corn, Field); assay: Postemergence herbicidal evaluation; assay type: in vivo, Zea mays; details: postemergence
How it was run: as §2

[9] = tested on: TRZAWR (Wheat, Winter, cv Riband); assay: Postemergence herbicidal evaluation; assay type: in vivo, Triticum aestivum; details: postemergence
How it was run: as §2

[10] = tested on: ECHCG (Barnyardgrass); assay: Postemergence herbicidal evaluation; assay type: in vivo, Echinochloa crus-galli; details: postemergence
How it was run: as §2

[11] = tested on: MOOVA (Monochoria); assay: Preemergence weed control under flooded paddy conditions; assay type: in vivo, Monochoria vaginalis; details: rated 3-4 weeks after treatment
How it was run: as §1

[12] = tested on: ORYSAT (Rice, Tebonnet); assay: Preemergence herbicidal evaluation; assay type: in vivo, Oryza sativa, (L.) Tebonnet; details: rated 4-5 weeks after treatment
How it was run: as §3

[13] = tested on: GLXMAW (Soybean, Williams); assay: Preemergence herbicidal evaluation; assay type: in vivo, Glycine max, (L.) Merr. cv Williams; details: rated 4-5 weeks after treatment
How it was run: as §3

[14] = tested on: ORYSAT (Rice, Tebonnet); assay: Rice tolerance to post-transplant applications, flooded paddy conditions (Table III); assay type: in vivo, Oryza sativa, (L.) Tebonnet; details: in vivo
How it was run: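 Injury scored 0-9 by eye against untreated control, judging stand, vigor, malformation, size and chlorosis, three to four weeks after treatment. Compound in 50/50 aqueous/acetone, about 0.0313 to 0.500 kg/ha, was applied to paddy water (1.5 to 3 cm depth) three days after transplanting paired ten-day-old Tebonnet rice seedlings.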

## C#CCOC(=O)CN1C(=O)CSC1=Nc1cc(-n2c(=O)cc(C(F)(F)F)n(C)c2=O)c(F)cc1Cl [Compound 115, 2-Propynyl 2-{{2-chloro-5-[3,6-dihydro-3-methyl-2,6-dioxo-4-(trifluoromethyl)-1(2H)-pyrimidinyl]-4-fluorophenyl}imino}-4-oxo-3-thiazolidineacetate]
[1]; 0.0313 kg/ha
  CYPSE herbicidal effect rating: 0.0
[1]; 0.0625 kg/ha
  CYPSE herbicidal effect rating: 0.0
[1]; 0.2500 kg/ha
  CYPSE herbicidal effect rating: 6.0
[2]; 0.0313 kg/ha
  ECHORC herbicidal effect rating: 4.0
[2]; 0.0625 kg/ha
  ECHORC herbicidal effect rating: 4.0
[2]; 0.1250 kg/ha
  ECHORC herbicidal effect rating: 5.0
[2]; 0.2500 kg/ha
  ECHORC herbicidal effect rating: 5.0
[3]; 0.0313 kg/ha
  SAGPY herbicidal effect rating: 2.0
[3]; 0.0625 kg/ha
  SAGPY herbicidal effect rating: 3.0
[3]; 0.1250 kg/ha
  SAGPY herbicidal effect rating: 5.0
[3]; 0.2500 kg/ha
  SAGPY herbicidal effect rating: 6.0
[4]; rate 0.0158 kg/ha
  Herbicidal rating ABUTH: 3.0
[4]; rate 0.0315 kg/ha
  Herbicidal rating ABUTH: 9.0
[4]; rate 0.0630 kg/ha
  Herbicidal rating ABUTH: 9.0
[5]; rate 0.0156 kg/ha
  Preemergence herbicidal rating TRZAWR: 0.0
[5]; rate 0.0313 kg/ha
  Preemergence herbicidal rating TRZAWR: 0.0
[5]; rate 0.0625 kg/ha
  Preemergence herbicidal rating TRZAWR: 0.0
[5]; rate 0.1250 kg/ha
  Preemergence herbicidal rating TRZAWR: 0.0
[5]; rate 0.2500 kg/ha
  Preemergence herbicidal rating TRZAWR: 4.0
[6]; rate 0.0158 kg/ha
  Herbicidal rating CASOB: 0.0
[6]; rate 0.0315 kg/ha
  Herbicidal rating CASOB: 1.0
[6]; rate 0.0630 kg/ha
  Herbicidal rating CASOB: 1.0
[7]; rate 0.0158 kg/ha
  Herbicidal rating GALAP: 0.0
[7]; rate 0.0315 kg/ha
  Herbicidal rating GALAP: 0.0
[7]; rate 0.0630 kg/ha
  Herbicidal rating GALAP: 2.0
[8]; rate 0.0158 kg/ha
  Herbicidal rating ZEAMX: 5.0
[8]; rate 0.0315 kg/ha
  Herbicidal rating ZEAMX: 6.5
[8]; rate 0.0630 kg/ha
  Herbicidal rating ZEAMX: 7.0
[9]; rate 0.0158 kg/ha
  Herbicidal rating TRZAWR: 1.5
[9]; rate 0.0315 kg/ha
  Herbicidal rating TRZAWR: 2.5
[9]; rate 0.0630 kg/ha
  Herbicidal rating TRZAWR: 3.0
[10]; rate 0.0158 kg/ha
  Herbicidal rating ECHCG: 0.0
[10]; rate 0.0315 kg/ha
  Herbicidal rating ECHCG: 2.0
[10]; rate 0.0630 kg/ha
  Herbicidal rating ECHCG: 3.0
[11]; 0.0313 kg/ha
  MOOVA herbicidal effect rating: 7.0
[11]; 0.0625 kg/ha
  MOOVA herbicidal effect rating: 9.0
[11]; 0.1250 kg/ha
  MOOVA herbicidal effect rating: 9.0
[11]; 0.2500 kg/ha
  MOOVA herbicidal effect rating: 9.0
[12]; rate 0.0156 kg/ha
  Preemergence herbicidal rating ORYSAT: 0.0
[12]; rate 0.0313 kg/ha
  Preemergence herbicidal rating ORYSAT: 0.0
[12]; rate 0.0625 kg/ha
  Preemergence herbicidal rating ORYSAT: 0.0
[12]; rate 0.1250 kg/ha
  Preemergence herbicidal rating ORYSAT: 1.0
[12]; rate 0.2500 kg/ha
  Preemergence herbicidal rating ORYSAT: 3.0
[13]; rate 0.0156 kg/ha
  Preemergence herbicidal rating GLXMAW: 0.0
[13]; rate 0.0313 kg/ha
  Preemergence herbicidal rating GLXMAW: 0.0
[13]; rate 0.0625 kg/ha
  Preemergence herbicidal rating GLXMAW: 1.0
[13]; rate 0.1250 kg/ha
  Preemergence herbicidal rating GLXMAW: 3.0
[13]; rate 0.2500 kg/ha
  Preemergence herbicidal rating GLXMAW: 4.0

## COC(=O)C(C)OC(=O)CN1C(=O)CSC1=Nc1cc(-n2c(=O)cc(C(F)(F)F)n(C)c2=O)c(F)cc1Cl (stereo not drawn) [Compound 116, 2-{{2-Chloro-5-[3,6-dihydro-3-methyl-2,6-dioxo-4-(trifluoromethyl)-1(2H)-pyrimidinyl]-4-fluorophenyl}imino}-4-oxo-3-thiazolidineacetic acid, ester with methyl lactate]
[1]; 0.0313 kg/ha
  herbicidal effect rating, CYPSE: 6.0
[1]; 0.0625 kg/ha
  herbicidal effect rating, CYPSE: 6.0
[1]; 0.1250 kg/ha
  CYPSE herbicidal effect rating: 7.0
[1]; 0.2500 kg/ha
  CYPSE herbicidal effect rating: 8.0
[2]; 0.0313 kg/ha
  herbicidal effect rating, ECHORC: 0.0
[2]; 0.0625 kg/ha
  herbicidal effect rating, ECHORC: 5.0
[2]; 0.1250 kg/ha
  ECHORC herbicidal effect rating: 6.0
[2]; 0.2500 kg/ha
  ECHORC herbicidal effect rating: 5.0
[3]; 0.0313 kg/ha
  herbicidal effect rating, SAGPY: 2.0
[3]; 0.0625 kg/ha
  herbicidal effect rating, SAGPY: 3.0
[3]; 0.1250 kg/ha
  SAGPY herbicidal effect rating: 5.0
[3]; 0.2500 kg/ha
  SAGPY herbicidal effect rating: 6.0
[4]; rate 0.0158 kg/ha
  Herbicidal rating ABUTH: 9.0
[4]; rate 0.0315 kg/ha
  Herbicidal rating ABUTH: 9.0
[4]; rate 0.0630 kg/ha
  Herbicidal rating ABUTH: 9.0
[5]; rate 0.0156 kg/ha
  Preemergence herbicidal rating TRZAWR: 0.0
[5]; rate 0.0313 kg/ha
  Preemergence herbicidal rating TRZAWR: 0.0
[5]; rate 0.0625 kg/ha
  Preemergence herbicidal rating TRZAWR: 0.0
[5]; rate 0.1250 kg/ha
  Preemergence herbicidal rating TRZAWR: 0.0
[5]; rate 0.2500 kg/ha
  Preemergence herbicidal rating TRZAWR: 1.0
[6]; rate 0.0158 kg/ha
  Herbicidal rating CASOB: 1.0
[6]; rate 0.0315 kg/ha
  Herbicidal rating CASOB: 1.0
[6]; rate 0.0630 kg/ha
  Herbicidal rating CASOB: 1.0
[7]; rate 0.0158 kg/ha
  Herbicidal rating GALAP: 0.0
[7]; rate 0.0315 kg/ha
  Herbicidal rating GALAP: 0.0
[7]; rate 0.0630 kg/ha
  Herbicidal rating GALAP: 0.0
[14]
  ORYSAT herbicidal effect rating (rice tolerance): 4.0
  herbicidal effect rating, ORYSAT (rice tolerance): 2.0
[8]; rate 0.0158 kg/ha
  Herbicidal rating ZEAMX: 4.5
[8]; rate 0.0315 kg/ha
  Herbicidal rating ZEAMX: 4.5
[8]; rate 0.0630 kg/ha
  Herbicidal rating ZEAMX: 4.5
[9]; rate 0.0158 kg/ha
  Herbicidal rating TRZAWR: 1.5
[9]; rate 0.0315 kg/ha
  Herbicidal rating TRZAWR: 2.5
[9]; rate 0.0630 kg/ha
  Herbicidal rating TRZAWR: 2.5
[10]; rate 0.0158 kg/ha
  Herbicidal rating ECHCG: 3.0
[10]; rate 0.0315 kg/ha
  Herbicidal rating ECHCG: 1.0
[10]; rate 0.0630 kg/ha
  Herbicidal rating ECHCG: 2.0
[11]; 0.0313 kg/ha
  herbicidal effect rating, MOOVA: 7.0
[11]; 0.0625 kg/ha
  herbicidal effect rating, MOOVA: 9.0
[11]; 0.1250 kg/ha
  MOOVA herbicidal effect rating: 9.0
[11]; 0.2500 kg/ha
  MOOVA herbicidal effect rating: 9.0
[12]; rate 0.0156 kg/ha
  Preemergence herbicidal rating ORYSAT: 0.0
[12]; rate 0.0313 kg/ha
  Preemergence herbicidal rating ORYSAT: 0.0
[12]; rate 0.0625 kg/ha
  Preemergence herbicidal rating ORYSAT: 0.0
[12]; rate 0.1250 kg/ha
  Preemergence herbicidal rating ORYSAT: 0.0
[12]; rate 0.2500 kg/ha
  Preemergence herbicidal rating ORYSAT: 1.0
[13]; rate 0.0156 kg/ha
  Preemergence herbicidal rating GLXMAW: 1.0
[13]; rate 0.0313 kg/ha
  Preemergence herbicidal rating GLXMAW: 1.0
[13]; rate 0.0625 kg/ha
  Preemergence herbicidal rating GLXMAW: 0.0
[13]; rate 0.1250 kg/ha
  Preemergence herbicidal rating GLXMAW: 1.0
[13]; rate 0.2500 kg/ha
  Preemergence herbicidal rating GLXMAW: 2.0

— patent US20020137929A1, “1 - (3-heterocyclylphenyl) isothiourea, -isourea, -guanidine and -amidine herbicidal agents” (Intellectual Property Department, BASF Aktiengesellschaft, priority 1998, published 2002)
